Laboratory results reported in patent US6770596B1, “Fused tricyclic compounds, process for their preparation, and herbicidal compositions containing them” (Ishihara Sangyo Kaisha Ltd., priority 2002, dated 2004).

Assays:
Type in all cases: in vivo
[1] = system: redroot pigweed (Amaranthus retroflexus, AMR); assay: Post-emerge test, redroot pigweed; details: 250 g ai/ha, 14 days after application, rating scale 0-100 (0 no damage, 100 complete death)
From the text: (§1) A standard greenhouse herbicide activity screening system was used to evaluate the herbicidal efficacy and crop safety of these test compounds. Seven broadleaf weed species including redroot pigweed (Amaranthus retroflexus, AMR), velvetleaf (Abutilon theophrasti, ABT), sicklepod (Cassia obtusifolia, CAO), ivyleaf morningglory (Ipomoea hederacea, IPH), lambsquarters (Chenopodium album, CHA), common ragweed (Ambrosia artemisiifolia L., AML), and cocklebur (Xanthium strumariunt, XAS) were used as test species. Four grass weed species including green foxtail (Setaria viridis, SEV), barnyardgrass (Echinachloa crus-galli, ECC), johnsongrass (Sorghum halepense, SOH), and large crabgrass (Digitaria sanguinalis, DIS) were also used. In addition, four crop species, field corn (Zea mays L., var. Dekalb 535, CORN), soybean (Glycine max L., var. Pella 86, SOY), upland rice (Oryza sp., var.Tebonnet, RICE), and wheat (Triticum aestivum) were included all plants were grown in 10 cm square plastic pots which were filled with a sandy loam soil mix.
(§2) For pre-emerge tests, seeds were planted one day prior to application of the test compounds. All test compounds were dissolved in acetone and applied to the test pots in a volume of 187 l/ha. Test materials were applied at rates ranging from 8 g ai/ha to 1000 g ai/ha using a track sprayer equipped with a TJ8001E even flow flat fan spray nozzle. This application simulates a typical commercial field herbicide application.
(§3) For post-emerge tests, seeds were planted 8-21 days prior to the test to allow emergence and good foliage development prior to application of the test substances. At the time of the post-emerge application, plants of all species were usually at the 2-3 leaf stage of development. In the postemerge test, a commercial non-ionic surfactant was also included (0.25% v/v) to enhance wetting of the leaf surfaces of target plants.
(§4) At 14 days after application of the test materials, phytotoxicity ratings were recorded. A rating scale of 0-100 was used for both pre and post emerge tests as previously described in Research Methods in Weed Science, 2nd edition, B, Truelove, Ed., Southern Weed Science Society, Auburn University, Auburn, Ala., 1977. Briefly, “0” corresponds to no damage and “100” corresponds to complete death of all plants in the test unit. This scale was used both to determine efficacy against weed species and damage to crop species. Herbicide activity data for various compounds of this invention, which are shown by compound No. in Tables 1-3, are shown in Tables 5 and 6.

[2] = system: johnsongrass (Sorghum halepense, SOH); assay: Post-emerge test, johnsongrass; details: 250 g ai/ha, 14 days after application, rating scale 0-100 (0 no damage, 100 complete death)
From the text: as §1, §2, §3, §4

[3] = system: velvetleaf (Abutilon theophrasti, ABT); assay: Pre-emerge test, velvetleaf; details: 250 g ai/ha, 14 days after application, rating scale 0-100 (0 no damage, 100 complete death)
From the text: as §1, §2, §4

[4] = system: soybean (Glycine max L., var. Pella 86, SOY); assay: Post-emerge test, crop damage soybean; details: post-emerge, 250 g ai/ha, 14 days after application, rating scale 0-100 (0 no damage, 100 complete death)
From the text: as §1, §2, §3, §4

[5] = system: redroot pigweed (Amaranthus retroflexus, AMR); assay: Pre-emerge test, redroot pigweed; details: 250 g ai/ha, 14 days after application, rating scale 0-100 (0 no damage, 100 complete death)
From the text: as §1, §2, §4

[6] = system: field corn (Zea mays L., var. Dekalb 535, CORN); assay: Pre-emerge test, crop damage field corn; details: pre-emerge, 250 g ai/ha, 14 days after application, rating scale 0-100 (0 no damage, 100 complete death)
From the text: as §1, §2, §4

[7] = system: lambsquarters (Chenopodium album, CHA); assay: Post-emerge test, lambsquarters; details: 250 g ai/ha, 14 days after application, rating scale 0-100 (0 no damage, 100 complete death)
From the text: as §1, §2, §3, §4

[8] = system: field corn (Zea mays L., var. Dekalb 535, CORN); assay: Post-emerge test, crop damage field corn; details: post-emerge, 250 g ai/ha, 14 days after application, rating scale 0-100 (0 no damage, 100 complete death)
From the text: as §1, §2, §3, §4

[9] = system: upland rice (Oryza sp., var.Tebonnet, RICE); assay: Post-emerge test, crop damage upland rice; details: post-emerge, 250 g ai/ha, 14 days after application, rating scale 0-100 (0 no damage, 100 complete death)
From the text: as §1, §2, §3, §4

[10] = system: lambsquarters (Chenopodium album, CHA); assay: Pre-emerge test, lambsquarters; details: 250 g ai/ha, 14 days after application, rating scale 0-100 (0 no damage, 100 complete death)
From the text: as §1, §2, §4

[11] = system: upland rice (Oryza sp., var.Tebonnet, RICE); assay: Pre-emerge test, crop damage upland rice; details: pre-emerge, 250 g ai/ha, 14 days after application, rating scale 0-100 (0 no damage, 100 complete death)
From the text: as §1, §2, §4

[12] = system: sicklepod (Cassia obtusifolia, CAO); assay: Pre-emerge test, sicklepod; details: 250 g ai/ha, 14 days after application, rating scale 0-100 (0 no damage, 100 complete death)
From the text: as §1, §2, §4

[13] = system: cocklebur (Xanthium strumariunt, XAS); assay: Pre-emerge test, cocklebur; details: 250 g ai/ha, 14 days after application, rating scale 0-100 (0 no damage, 100 complete death)
From the text: as §1, §2, §4

[14] = system: ivyleaf morningglory (Ipomoea hederacea, IPH); assay: Pre-emerge test, ivyleaf morningglory; details: 250 g ai/ha, 14 days after application, rating scale 0-100 (0 no damage, 100 complete death)
From the text: as §1, §2, §4

[15] = system: wheat (Triticum aestivum); assay: Post-emerge test, crop damage wheat; details: post-emerge, 250 g ai/ha, 14 days after application, rating scale 0-100 (0 no damage, 100 complete death)
From the text: as §1, §2, §3, §4

[16] = system: johnsongrass (Sorghum halepense, SOH); assay: Pre-emerge test, johnsongrass; details: 250 g ai/ha, 14 days after application, rating scale 0-100 (0 no damage, 100 complete death)
From the text: as §1, §2, §4

[17] = system: sicklepod (Cassia obtusifolia, CAO); assay: Post-emerge test, sicklepod; details: 250 g ai/ha, 14 days after application, rating scale 0-100 (0 no damage, 100 complete death)
From the text: as §1, §2, §3, §4

[18] = system: common ragweed (Ambrosia artemisiifolia L., AML); assay: Post-emerge test, common ragweed; details: 250 g ai/ha, 14 days after application, rating scale 0-100 (0 no damage, 100 complete death)
From the text: as §1, §2, §3, §4

[19] = system: soybean (Glycine max L., var. Pella 86, SOY); assay: Pre-emerge test, crop damage soybean; details: pre-emerge, 250 g ai/ha, 14 days after application, rating scale 0-100 (0 no damage, 100 complete death)
From the text: as §1, §2, §4

[20] = system: ivyleaf morningglory (Ipomoea hederacea, IPH); assay: Post-emerge test, ivyleaf morningglory; details: 250 g ai/ha, 14 days after application, rating scale 0-100 (0 no damage, 100 complete death)
From the text: as §1, §2, §3, §4

[21] = system: velvetleaf (Abutilon theophrasti, ABT); assay: Post-emerge test, velvetleaf; details: 250 g ai/ha, 14 days after application, rating scale 0-100 (0 no damage, 100 complete death)
From the text: as §1, §2, §3, §4

[22] = system: common ragweed (Ambrosia artemisiifolia L., AML); assay: Pre-emerge test, common ragweed; details: 250 g ai/ha, 14 days after application, rating scale 0-100 (0 no damage, 100 complete death)
From the text: as §1, §2, §4

[23] = system: large crabgrass (Digitaria sanguinalis, DIS); assay: Post-emerge test, large crabgrass; details: 250 g ai/ha, 14 days after application, rating scale 0-100 (0 no damage, 100 complete death)
From the text: as §1, §2, §3, §4

[24] = system: cocklebur (Xanthium strumariunt, XAS); assay: Post-emerge test, cocklebur; details: 250 g ai/ha, 14 days after application, rating scale 0-100 (0 no damage, 100 complete death)
From the text: as §1, §2, §3, §4

[25] = system: large crabgrass (Digitaria sanguinalis, DIS); assay: Pre-emerge test, large crabgrass; details: 250 g ai/ha, 14 days after application, rating scale 0-100 (0 no damage, 100 complete death)
From the text: as §1, §2, §4

[26] = system: wheat (Triticum aestivum); assay: Pre-emerge test, crop damage wheat; details: pre-emerge, 250 g ai/ha, 14 days after application, rating scale 0-100 (0 no damage, 100 complete death)
From the text: as §1, §2, §4

[27] = system: barnyardgrass (Echinachloa crus-galli, ECC); assay: Post-emerge test, barnyardgrass; details: 250 g ai/ha, 14 days after application, rating scale 0-100 (0 no damage, 100 complete death)
From the text: as §1, §2, §3, §4

[28] = system: barnyardgrass (Echinachloa crus-galli, ECC); assay: Pre-emerge test, barnyardgrass; details: 250 g ai/ha, 14 days after application, rating scale 0-100 (0 no damage, 100 complete death)
From the text: as §1, §2, §4

[29] = system: green foxtail (Setaria viridis, SEV); assay: Pre-emerge test, green foxtail; details: 250 g ai/ha, 14 days after application, rating scale 0-100 (0 no damage, 100 complete death)
From the text: as §1, §2, §4

[30] = system: green foxtail (Setaria viridis, SEV); assay: Post-emerge test, green foxtail; details: 250 g ai/ha, 14 days after application, rating scale 0-100 (0 no damage, 100 complete death)
From the text: as §1, §2, §3, §4

| SMILES | Post-emerge Herbicidal Activity AMR (phytotoxicity rating) [1] | Post-emerge Herbicidal Activity SOH (phytotoxicity rating) [2] | Pre-emerge Herbicidal Activity ABT (phytotoxicity rating) [3] | Post-emerge crop damage SOY (phytotoxicity rating) [4] | Pre-emerge Herbicidal Activity AMR (phytotoxicity rating) [5] | Pre-emerge crop damage CORN (phytotoxicity rating) [6] | Post-emerge Herbicidal Activity CHA (phytotoxicity rating) [7] | Post-emerge crop damage CORN (phytotoxicity rating) [8] | Post-emerge crop damage RICE (phytotoxicity rating) [9] | Pre-emerge Herbicidal Activity CHA (phytotoxicity rating) [10] | Pre-emerge crop damage RICE (phytotoxicity rating) [11] | Pre-emerge Herbicidal Activity CAO (phytotoxicity rating) [12] | Pre-emerge Herbicidal Activity XAS (phytotoxicity rating) [13] | Pre-emerge Herbicidal Activity IPH (phytotoxicity rating) [14] | Post-emerge crop damage WHEAT (phytotoxicity rating) [15] | Pre-emerge Herbicidal Activity SOH (phytotoxicity rating) [16] | Post-emerge Herbicidal Activity CAO (phytotoxicity rating) [17] | Post-emerge Herbicidal Activity AML (phytotoxicity rating) [18] | Pre-emerge crop damage SOY (phytotoxicity rating) [19] | Post-emerge Herbicidal Activity IPH (phytotoxicity rating) [20] | other results |
| --- | --- | --- | --- | --- | --- | --- | --- | --- | --- | --- | --- | --- | --- | --- | --- | --- | --- | --- | --- | --- | --- |
| CC1Oc2cc(F)c(-c3nn(C)c(C(F)(F)F)c3Cl)c3c2N(C1=O)C(C)C(=O)N3 (mixture of isomers) [1-50] | 100 | 55 | 100 | 75 | 100 | 85 | 100 | 20 | 65 | 100 | 50 | 99 | 75 | 90 | 35 | 100 | 75 | 70 | 60 | 100 | Post-emerge Herbicidal Activity ABT (phytotoxicity rating) [21]: 100; Pre-emerge Herbicidal Activity AML (phytotoxicity rating) [22]: 100; Post-emerge Herbicidal Activity DIS (phytotoxicity rating) [23]: 70; Post-emerge Herbicidal Activity XAS (phytotoxicity rating) [24]: 100; Pre-emerge Herbicidal Activity DIS (phytotoxicity rating) [25]: 99; Pre-emerge crop damage WHEAT (phytotoxicity rating) [26]: 25; Post-emerge Herbicidal Activity ECC (phytotoxicity rating) [27]: 99; Pre-emerge Herbicidal Activity ECC (phytotoxicity rating) [28]: 99; Pre-emerge Herbicidal Activity SEV (phytotoxicity rating) [29]: 100; Post-emerge Herbicidal Activity SEV (phytotoxicity rating) [30]: 70 |
| CC1Oc2cc(F)c(-c3nn(C)c(C(F)(F)F)c3Cl)c3c2N(C1=O)C(C)C(=O)N3 (mixture of isomers) [1-51] | 100 | 80 | 100 | 60 | 100 | 70 | 100 | 50 | 75 | 100 | 70 | 100 | 99 | 98 | 60 | 100 | 100 | 85 | 65 | 100 | Post-emerge Herbicidal Activity ABT (phytotoxicity rating) [21]: 100; Pre-emerge Herbicidal Activity AML (phytotoxicity rating) [22]: 100; Post-emerge Herbicidal Activity DIS (phytotoxicity rating) [23]: 90; Post-emerge Herbicidal Activity XAS (phytotoxicity rating) [24]: 100; Pre-emerge Herbicidal Activity DIS (phytotoxicity rating) [25]: 100; Pre-emerge crop damage WHEAT (phytotoxicity rating) [26]: 60; Post-emerge Herbicidal Activity ECC (phytotoxicity rating) [27]: 100; Pre-emerge Herbicidal Activity ECC (phytotoxicity rating) [28]: 100; Pre-emerge Herbicidal Activity SEV (phytotoxicity rating) [29]: 100; Post-emerge Herbicidal Activity SEV (phytotoxicity rating) [30]: 100 |
| CC1Oc2cc(F)c(-c3nn(C)c(C(F)(F)F)c3Cl)c3c2N(C1=O)C(C(C)C)C(=O)N3 (mixture of isomers) [1-53] | 100 | 0 | 100 | 20 | 100 | 25 | 100 | 5 | 0 | 100 | 5 | 100 | 100 | 95 | 10 | 90 | 50 | 75 | 50 | 100 | Post-emerge Herbicidal Activity ABT (phytotoxicity rating) [21]: 100; Pre-emerge Herbicidal Activity AML (phytotoxicity rating) [22]: 95; Post-emerge Herbicidal Activity DIS (phytotoxicity rating) [23]: 0; Post-emerge Herbicidal Activity XAS (phytotoxicity rating) [24]: 100; Pre-emerge Herbicidal Activity DIS (phytotoxicity rating) [25]: 98; Pre-emerge crop damage WHEAT (phytotoxicity rating) [26]: 15; Post-emerge Herbicidal Activity ECC (phytotoxicity rating) [27]: 70; Pre-emerge Herbicidal Activity ECC (phytotoxicity rating) [28]: 95; Pre-emerge Herbicidal Activity SEV (phytotoxicity rating) [29]: 99; Post-emerge Herbicidal Activity SEV (phytotoxicity rating) [30]: 60 |
